# Results taken from paper PMC8972805, “Monomodular Pseudomonas aeruginosa phage JG004 lysozyme (Pae87) contains a bacterial surface-active antimicrobial peptide-like region and a possible substrate-binding subdomain” (Acta Crystallographica. Section D, Structural Biology, 2022).
# Target: T1, Pae87 (Pseudomonas phage JG004, UniProt F4YDQ3)
# T1 construct: gene PJG4_087; full length, 186 residues, N-terminal 6xHis tag (pET-28a(+), tag kept, up to two tag residues modelled), synthetic gene, expressed in E. coli BL21(DE3); one molecule in asymmetric unit of the complex
# Assay: X-ray crystal structure of complex, […] Å
# Assay type: binding
# Conditions: fragment from PAO1 peptidoglycan hydrolysed by Pae87; second site about 18 Å from catalytic site (helices 4, 5 and 7); Tris-HCl pH 8.0, PEG MME 5000
# T1 sequence (F4YDQ3 entry or part of it): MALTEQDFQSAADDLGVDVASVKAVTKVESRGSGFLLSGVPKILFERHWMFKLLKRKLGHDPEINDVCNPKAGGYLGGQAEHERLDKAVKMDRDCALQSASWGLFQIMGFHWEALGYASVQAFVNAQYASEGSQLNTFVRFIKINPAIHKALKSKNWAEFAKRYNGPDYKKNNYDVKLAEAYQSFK
structure (smiles),measurement,value
CC(=O)N[C@H]1[C@H](O[C@H]2[C@H](O[C@H](C)C(=O)N[C@@H](C)C(=O)N[C@H](CCC(=O)O)C(=O)O)[C@@H](NC(C)=O)C(O)O[C@@H]2CO)O[C@H](CO)[C@@H](O)[C@@H]1O (stereo partly shown) [peptidoglycan fragment],"X-ray crystal structure of complex, 1.27 Å","the peptidoglycan fragment (comprised of linked NAG, MurNAc, L-alanine"
